Where a name gives a salt, the structure may show the parent alone.

For `N#C[C@@H]1CCCN1C(=O)CNC1CCC(Nc2ccc(C(F)(F)F)cn2)CC1` (stereo partly shown) (as salt: hydrochloride), the melting point (in general, the temperature of the solid-liquid transition) was in the range of 270 to 273 °C. The value for `N#Cc1ccc(NC2CCC(NCC(=O)N3CCC[C@H]3C#N)CC2)cc1` (stereo partly drawn) (as salt: hydrochloride) [Ex. 2W, 1-[[[4-[(4-cyanophenyl)amino]cyclohexyl]amino]acetyl]-2-cyano-(S)-pyrrolidine] was 165 to 167 °C.

In turn, `N#C[C@@H]1CCCN1C(=O)CN[C@H]1CC[C@H](NS(=O)(=O)c2cccs2)CC1` (as salt: hydrochloride) [Ex. 2AA] showed a melting point of 75 to 77 °C.

On to `N#C[C@@H]1CCCN1C(=O)CNC1CCC(NS(=O)(=O)c2ccccc2)CC1` (stereo partly drawn) (as salt: hydrochloride) [Ex. 2M, 1-[[[4-[(phenylsulfonyl)amino]cyclohexyl]amino]acetyl]-2-cyano-(S)-pyrrolidine], for which the melting point lay within 120 to 122 °C. The value for `N#C[C@@H]1CCCN1C(=O)CNC1CCC(Nc2nc3cc(Cl)ccc3s2)CC1` (stereo partly drawn) (as salt: hydrochloride) [Ex. 2Y, 1-[[[4-[(5-chloro-2-benzothiazolyl)amino]cyclohexyl]amino]acetyl]-2-cyano-(S)-pyrrolidine] was 290 to 294 °C. In the case of `CC(C)(Cc1ccccc1)NCC(=O)N1CCC[C@H]1C#N` (as salt: hydrochloride) [Ex. 2CC, 1-[[(1,1-dimethyl-2-phenylethyl)amino]acetyl]-2-cyano-(S)-pyrrolidine], the melting point is 212 to 214 °C. Under `CCCCCC12CCC(NCC(=O)N3CCC[C@H]3C#N)(CC1)CC2` (as salt: hydrochloride) [Ex. 2DD, 1-[[(4-pentylbicyclo[2.2.2]oct-1-yl)amino]acetyl]-2-cyano-(S)-pyrrolidine] stands 99 to 102 °C; under `N#Cc1ccc(NC2CCC(NCC(=O)N3CCC[C@H]3C#N)CC2)nc1` (stereo partly drawn) (as salt: hydrochloride) [Ex. 2L, 1-[[[4-[(5-cyano-2-pyridinyl)amino]cyclohexyl]amino]acetyl]-2-cyano-(S)-pyrrolidine], 242 to 244 °C; under `CC(C)(CNc1ccc(C#N)cn1)NCC(=O)N1CCC[C@H]1C#N` [Ex. 2A, 1-[[[2-[(5-cyano-2-pyridinyl)amino]-1,1-dimethylethyl]amino]acetyl]-2-cyano-(S)-pyrrolidine], 47 to 49 °C. On to `CC(C)N(C(=O)NCC(C)(C)NCC(=O)N1CCC[C@H]1C#N)C(C)C` (as salt: hydrochloride) [Ex. 2J, 1-[[[2-[[(diisopropylamino)carbonyl]amino]-1,1-dimethylethyl]amino]acetyl]-2-cyano-(S)-pyrrolidine], for which the melting point fell in the range of 128 to 130 °C. Under `N#C[C@@H]1CCCN1C(=O)CNC1CCN(c2nc(-c3ccc(Cl)cc3)cs2)CC1` (as salt: hydrochloride) [Ex. 2LL] stands 160 to 162 °C. Under `CC(C)(C)C(=O)NC1CCC(NCC(=O)N2CCC[C@H]2C#N)CC1` (stereo partly drawn) (as salt: hydrochloride) [Ex. 2U, 1-[[[4-[(2,2-dimethyl-1-oxopropyl)amino]cyclohexyl]amino]acetyl]-2-cyano-(S)-pyrrolidine] stands 290 to 294 °C. Under `N#C[C@@H]1CCCN1C(=O)CNC1CCC(NC(=O)C2CCCCC2)CC1` (stereo partly drawn) (as salt: hydrochloride) [Ex. 2X, 1-[[[4-[(cyclohexylcarbonyl)amino]cyclohexyl]amino]acetyl]-2-cyano-(S)-pyrrolidine] stands 189 to 190 °C.

Molecule `N#C[C@@H]1CCCN1C(=O)CNC1CCN(C(=O)Nc2ccc(Cl)cc2)CC1` (as salt: hydrochloride) [Ex. 2II, 1-[[[1-[[(4-chlorophenyl)amino]carbonyl]-4-piperidinyl]amino]acetyl]-2-cyano-(S)-pyrrolidine] yielded a melting point of 172 to 174 °C. For `N#C[C@@H]1CCCN1C(=O)CN[C@H]1CC[C@H](Nc2ncccc2C(F)(F)F)CC1` (as salt: hydrochloride) [Ex. 2P, 1-[[4-[[(3-trifluoromethyl-2-pyridinyl)amino]cyclohexyl]amino]acetyl]-2-cyano-(S)-pyrrolidine], the melting point lay in the range of 289 to 292 °C. The value for `CC(C)(CNc1ncccc1C(F)(F)F)NCC(=O)N1CCC[C@H]1C#N` (as salt: hydrochloride) [Ex. 2G, 1-[[[2-[(3-trifluoromethyl-2-pyridinyl)amino]-1,1-dimethylethyl]amino]acetyl]-2-cyano-(S)-pyrrolidine] was 112 to 114 °C; that for `CC(C)N(C(=O)N1CCC(NCC(=O)N2CCC[C@H]2C#N)CC1)C(C)C` (as salt: hydrochloride) [Ex. 2JJ, 1-[[[1-[(diisopropylamino)carbonyl]-4-piperidinyl]amino]acetyl]-2-cyano-(S)-pyrrolidine] was 82 to 84 °C. For the molecule `N#C[C@@H]1CCCN1C(=O)CNC1CCN(S(=O)(=O)c2ccccc2)CC1` (as salt: hydrochloride) [Ex. 4D, 1-[[(1-phenylsulfonyl-4-piperidinyl)amino]acetyl]-2-cyano-(S)-pyrrolidine], the melting point is above 300 °C. `N#C[C@@H]1CCCN1C(=O)CN[C@H]1CC[C@H](Oc2cccc(Cl)c2)CC1` (as salt: hydrochloride) [Ex. 2HH]: the melting point lay in the range of 72 to 74 °C. Regarding `COc1ccc(-c2csc(N3CCC(NCC(=O)N4CCC[C@H]4C#N)CC3)n2)cc1` (as salt: hydrochloride) [Ex. 2MM], the melting point fell in the range of 154 to 156 °C. Under `N#C[C@@H]1CCCN1C(=O)CN[C@H]1CC[C@H](NS(=O)(=O)c2ccc(Cl)cc2)CC1` (as salt: hydrochloride) [Ex. 2Q, 1-[[[[4-[(4-chlorophenyl)sulfonyl]amino]cyclohexyl]amino]acetyl]-2-cyano-(S)-pyrrolidine] stands 160 to 162 °C; under `CC(C)(CNc1ncc(Cl)cc1Cl)NCC(=O)N1CCC[C@H]1C#N` (as salt: hydrochloride) [Ex. 2F, 1-[[[2-[(3,5-dichloro-2-pyridinyl)amino]-1,1-dimethylethyl]amino]acetyl]-2-cyano-(S)-pyrrolidine], 108 to 110 °C; under `N#CC1CCCN1C(=O)CNC1CCC(Oc2ccc(Cl)cc2)CC1` (as salt: hydrochloride) [Ex. 2FF, 1-[[4-[4-chlorophenoxy)cyclohexyl]amino]acetyl]-2-cyano-(S)-pyrrolidine], 232 to 235 °C.

Turning to `CC(C)(CNC(=O)C(C)(C)C)NCC(=O)N1CCC[C@H]1C#N` (as salt: hydrochloride) [Ex. 2H, 1-[[[2-[(2,2-dimethyl-1-oxopropyl)amino]-1,1-dimethylethyl]amino]acetyl]-2-cyano-(S)-pyrrolidine], the melting point was in the range of 225 to 227 °C. In turn, `N#C[C@@H]1CCCN1C(=O)CN[C@H]1CC[C@H](NC(=O)c2ccc(Cl)cc2)CC1` (as salt: hydrochloride) [Ex. 2T, 1-[[[4-[(4-chlorobenzoyl)amino]cyclohexyl]amino]acetyl]-2-cyano-, (S)-pyrrolidine] gave a melting point of 260 to 263 °C. In turn, `N#C[C@@H]1CCCN1C(=O)CN[C@H]1CC[C@H](Oc2cccc(C(F)(F)F)c2)CC1` (as salt: hydrochloride) [Ex. 2GG, 1-[[[4-[(3-trifluoromethyl)phenoxy]cyclohexyl]amino]acetyl]-2-cyano-(S)-pyrrolidine] registered a melting point of 120 to 122 °C. Take `N#C[C@@H]1CCCN1C(=O)CNC1CCN(S(=O)(=O)c2ccc(C(F)(F)F)cc2)CC1` (as salt: hydrochloride) [Ex. 4C]: the melting point was above 300 °C. Under `CC(C)(CNC(=O)c1ccc(Cl)cc1)NCC(=O)N1CCC[C@H]1C#N` (as salt: hydrochloride) [Ex. 2I, 1-[[[2-[(4-chlorobenzoyl)amino]-1,1-dimethylethyl]amino]acetyl]-2-cyano-(S)-pyrrolidine] stands 121 to 123 °C; under `N#C[C@@H]1CCCN1C(=O)CNC1CCN(C(=O)C2CCCCC2)CC1` (as salt: hydrochloride) [Ex. 4A, 1-[[[1-(cyclohexylcarbonyl)-4-piperidinyl]amino]acetyl]-2-cyano-(S)-pyrrolidine], above 300 °C; under `CC(C)(Cc1ccc(F)cc1)NCC(=O)N1CCC[C@H]1C#N` (as salt: hydrochloride) [Ex. 2BB], 198 to 200 °C.

As for `N#C[C@@H]1CCCN1C(=O)CNC1CCC(NC(=O)c2ccccc2)CC1` (stereo partly drawn) [Ex. 2N, 1-[[[4-(benzoylamino)cyclohexyl]amino]acetyl]-2-cyano-(S)-pyrrolidine], the melting point is 78 to 80 °C. With `N#C[C@@H]1CCCN1C(=O)CNC1CCN(C(=O)c2ccc(Cl)cc2)CC1` (as salt: hydrochloride) [Ex. 4B], the melting point is 152 to 155 °C. The value for `N#C[C@@H]1CCCN1C(=O)CNC1CCC(Nc2ccnc(Cl)n2)CC1` (stereo partly drawn) (as salt: hydrochloride) [Ex. 2S, 1-[[[4-[(2-chloro-4-pyrimidinyl)amino]cyclohexyl]amino]acetyl]-2-cyano-(S)-pyrrolidine] was 290 to 293 °C; that for `CC(C)(CNC(=O)Nc1ccc(Cl)cc1)NCC(=O)N1CCC[C@H]1C#N` (as salt: hydrochloride) [Ex. 2K, 1-[[[2-[[[(4-chlorophenyl)amino]carbonyl]amino]-1,1-dimethylethyl]amino]acetyl]-2-cyano-(S)-pyrrolidine] was 112 to 114 °C; that for `N#C[C@@H]1CCCN1C(=O)CN[C@H]1CC[C@H](NS(=O)(=O)c2ccc(C(F)(F)F)cc2)CC1` (as salt: hydrochloride) [Ex. 2Z, 1-[[[4-[[[(4-trifluoromethyl)phenyl]sulfonyl]amino]cyclohexyl]amino]acetyl]-2-cyano-(S)-pyrrolidine] was 135 to 137 °C.

`N#C[C@@H]1CCCN1C(=O)CNC1CCC(Nc2nc3ccccc3s2)CC1` (stereo partly drawn) (as salt: hydrochloride) [Ex. 2V, 1-[[[4-[(2-benzothiazolyl)amino]cyclohexyl]amino]acetyl]-2-cyano-(S)-pyrrolidine] registered a melting point of 246 to 248 °C.

`CC(C)(CNc1ccc(C(F)(F)F)cn1)NCC(=O)N1CCC[C@H]1C#N` (as salt: hydrochloride) [Ex. 2B, 1-[[[2-[(5-trifluoromethyl-2-pyridinyl)amino]-1,1-dimethylethyl]amino]acetyl]-2-cyano-(S)-pyrrolidine] registered a melting point of 170 to 172 °C.

These data come from patent publication US6432969B1, “N-(substituted glycyl)-2 cyanopyrrolidines, pharmaceutical compositions containing them and their use in inhibiting dipeptidyl peptidase-IV” (Novartis AG, priority 2000, dated 2002).
